Test results: US6482805B2 (Parker Hughes Institute, priority 1998, dated 2002)
Like-named read-outs stand apart in the source and are kept apart here. Blank lines part the entries; values can stand above or below the molecule they belong to.

Columns and labels:
HIV-1 = assay: Anti-HIV-1 activity, p24 antigen assay in infected PBMC (Example 1); type: cell-based; details: for anti-HIV activity, in words: compared with parent AZT derivatives
Protocol: Subsequently, cells were cultured in 96-well microtiter plates (100 μl/well; 2×10^6/ml, triplicate wells) in the presence and absence of various concentrations (0.00 μM to 100 μM) of drugs for 7 days. Aliquots of culture supernatants were removed from the wells on the 7th day after infection for p24 antigen enzyme immunoassay as an indication of viral replication. Erice et al. Antimicrob. Agents and Chemother. […] Agents and Chemother. […] Percent inhibition of virus replication was calculated by comparing the p24 antigen values from the test drug-treated infected cells with p24 antigen values from untreated infected cells. […] Cell viability was quantified by a colorimetric […] assay. F. M. Uckun et al., Antimicrob. Agents and Chemother.

human sperm = assay: Sperm motility assay by CASA (Example 1); type: cell-based; details: for spermicidal activity, in words: compared with related derivatives; for EC50: 3 hours incubation at 37° C., CASA, read-out: EC50, sperm motility
Protocol: All donor specimens were obtained after informed consent and in compliance with the guidelines of the Wayne Hughes Institute Institutional Review Board. Motile sperm (≧10×10^6/ml), were suspended in 0.5 ml of Biggers, Whitten, and Whittingam's medium (BWW) containing 25 mM HEPES (Irvine Scientific, Santa Ana, Calif.), and 0.3% bovine serum albumin (BSA; Fraction V, Sigma Chemical Co, St. Louis, Mo.) in the presence and absence of serial two-fold dilutions of test substance (300 μM to 4.6 μm) in 1% DMSO. The stock solutions of synthetic WHI compounds were prepared in DMSO (10 mg/ml) and diluted in DMSO to yield the desired concentrations. Corresponding volume of DMSO (1%) was added to control tubes. N-9 was diluted in BWW-0.3% BSA (pH 7.4) to yield the desired concentrations (4.6 to 300 μM). After 3 hours of incubation at 37° C., the percentage of motile sperm was evaluated by computer-assisted sperm analysis (CASA) as described [L. J. Burkman, Fertil. Steril. […] The percent motilities were compared with sham-treated control suspensions of motile sperm. […] Non-linear regression analyses were used to determine the EC50 values from the concentration effect curves using GraphPad PRISM software (San Diego, Calif.).
For evaluating sperm motion kinematics using CASA, 4 μl each of sperm suspension was loaded into two 20-μm Microcell chambers (Conception Technologies) that was placed onto a counting chamber at 37° C. At least 5-8 fields per chamber were scanned for analysis using a Hamilton Thorne Integrated Visual Optical System (IVOS), version 10 instrument (Hamilton Thorne Research Inc., Danvers, Mass.). Each field was recorded for 30 seconds. […] The performance of the analyzer was periodically checked using the play-back function. The attributes of sperm kinematic parameters evaluated included numbers of motile (MOT) and progressively (PRG) motile sperm; curvilinear velocity (VCL; a measure of the total distance traveled by a given sperm during the acquisition divided by the time elapsed); average path velocity (VAP; the spatially averaged path that eliminates the wobble of the sperm head), straight line velocity (VSL; the straight-line distance from beginning to end of track divided by time taken), beat cross frequency (BCF, frequency of sperm head crossing sperm average path), the amplitude of lateral head displacement (ALH; the mean width of sperm head oscillation) and the derivatives, straightness ([…]); linearity (LIN=100×VSL/VCL; departure of sperm track from a straight line). Data from each individual cell track were recorded and analyzed. At least 200 motile sperm were analyzed for each aliquot sampled.

sperm acrosome = assay: Sperm acrosome and membrane integrity by FITC-lectin staining, confocal, SEM and TEM (Example 4); type: cell-based, human; details: 100 μM WHI compounds or 10 μM Cal A23187, 3 hours
Protocol: The percentages of sperm with an intact acrosome were evaluated by fluorescence microscopy (Olympus BX-60) following fixation and ethanol permeabilization of the sperm pellets and subsequent staining with fluorescein (FITC)-conjugated Pisum sativum lectin (Sigma). In positive control sperm, the acrosome reaction was induced by incubating (3 hours at 37° C.) the sperm suspension with 10 μm calcium ionophore (Cal) A23187 (Sigma). […] The percentage of sperm positive for PI were determined by flow cytometry using a FACS Vantage flow cytometer (Becton Dickinson and Co., Mountain View, Calif.). The sperm in the swim-up fractions were identified by their characteristic forward and 90° angle light scattering properties [O. J. D'Cruz and G. G. Haas, Jr. Fertil. Steril. 58, 633 (1992)]. All analyses were done using the 488-nm excitation from an krypton/argon laser with a 635-nm band pass filter for PI emission. The percentage of sperm positive for PI staining were determined using cutoff signals for membrane-intact motile sperm.
Ethanol permeabilized and air-dried sperm smears were stained sequentially with the three fluorescent markers, FITC-Pisum sativum, TOTO-3 iodide, and Nile red, each marking a different target (acrosome, nucleus, and plasma membrane of permeabilized sperm respectively). Samples were examined under a BioRad MRC-1024 Laser Scanning Confocal Microscope (BioRad Laboratories, Hercules, Calif.) equipped with a krypton/argon mixed gas laser (excitation lines 488, 568, and 647 nm) and mounted on a Nikon Eclipse E800 series upright microscope. The fluorescence emission of fluorescein, TOTO-3 iodide, and Nile red from the acrosomal region, nucleus, and the plasma membrane of sperm after ethanol permeabilization were simultaneously detected using the 598/40 nm, 522 DF32, and 680 DF32 emission/filter respectively. Confocal images were obtained using a Nikon 60× (NA 1.35) objective lens and Kalman collection filter. Digitized images were processed with the Adobe Photoshop software (Adobe Systems, Mountain View, Calif.). Final images were printed using a Fujix Pictography 3000 (Fuji Photo Film Co., Tokyo, Japan) color printer.
High-resolution low-voltage scanning electron microscopy was utilized for topographical imaging of different membrane domains over the sperm head as described [M. H. Stoffel et al. Molecular. Reprod. Develop. 34, 175 (1993); S. L. Erlandsen et al. Scanning 11, 169 (1989)]. […] Washed sperm suspensions were placed on 0.1% poly-L-lysine-coated glass chips and allowed to adhere to the glass over a 60 minute incubation period on ice. The supernatants were decanted, and adherent cells were fixed in 1% paraformaldehyde and 1% glutaraldehyde in 0.14 M sodium cacodylate buffer for 3 hours. To preserve plasma membrane integrity, sperm were post-fixed in 1% osmium tetroxide (OSO4) containing 0.1% ruthenium red in 0.14 M cacodylate buffer for 1 hour at 4° C. All samples were dehydrated through an ascending ethanol series, critical point dried, and coated with approximately 2 nm of platinum using ion beam sputtering with argon (4 mA at 10 ke V; Ion Tech Ltd., Middlesex, England). All samples were examined in a Hitachi S-900 SEM at an accelerating voltage of 2 keV. Sperm were observed under low magnification (×2,000-5000) and representative sperm were photographed under intermediate magnification (×18,000-25,000). In each specimen evaluated, at least 200 sperm were scanned for the intactness of sperm acrosomal region.
For transmission electron microscopy, treated sperm were fixed in 3% glutaraldehyde in 5% sucrose in 0.2 M cacodylate buffer for 3 hours at room temperature. The samples were post-fixed in 1% OSO4, 5% sucrose and 0.1% ruthenium red for 2 hours at 4° C. The samples were dehydrated in ascending ethanol series, and embedded in Spurr's epoxy. Thin sections (90 nm) were prepared on a Reichert-Jung Ultracut E and stained with uranyl acetate and lead citrate.

Molecule: 5-Bromo-6-methoxy-5,6-dihydro-3 ′-deoxythymidine 5′-[Phenyl methoxyalaninyl phosphate] [WHI-12]
anti-HIV activity, in words (HIV-1): reduction in the anti-HIV activity
spermicidal activity, in words (human sperm): improvement of the spermicidal activity

Molecule: 5-Bromo-6-methoxy-5,6-dihydro-3′-deoxythymidine 5′-[p-Bromo phenyl methoxyalaninyl phosphate] [WHI-11]
anti-HIV activity, in words (HIV-1): reduction in the anti-HIV activity
spermicidal activity, in words (human sperm): improvement of the spermicidal activity

EC50 (human sperm): 104 µM
Molecule: 5-bromo-6-methoxy-5,6-dihydro-AZT [WHI-01]
anti-HIV activity, in words (HIV-1): without significantly decreasing the anti-HIV activity

Molecule: Cc1cn([C@H]2C[C@H](N=[N+]=[N-])[C@@H](CO)O2)c(=O)[nH]c1=O [AZT, 3′-azido-3′-deoxythymidine, reference compound]
IC50 (HIV-1; Human immunodeficiency virus 1, PBMC, 168 h, read-out: IC50, HIV-1 replication (p24 antigen)): 0.006 µM
effect on sperm motion parameters (CASA kinematics) (human sperm): did not alter the sperm motion parameters
effect on sperm motility (human sperm; concentrations as high as 300 μm): did not affect sperm motility

Molecule: CNc1ccc2oc(C[C@H]3O[C@@]4(CC[C@H]3C)O[C@H]([C@H](C)C(=O)c3ccc[nH]3)[C@H](C)C[C@H]4C)nc2c1C(=O)O [Cal A23187, calcium ionophore (Cal) A23187, reference compound]
sperm head topography by scanning electron microscopy (sperm acrosome): blebbing or vesiculation, fenestration, and loss of plasma and acrosomal membranes

Molecule: COC1N([C@H]2C[C@H](N)[C@@H](CO)O2)C(=O)NC(=O)C1(C)Br (stereo partly shown) [WHI-03, 5-Bromo-6-methoxy-5,6-dihydro-3′-amino-3 ′-deoxythymidine]
anti-HIV activity, in words (HIV-1): substantially reduced anti-HIV activity
EC50 (human sperm; Homo sapiens, Sperm): 12 µM
melting point: 188 to 190 °C (dec.)
